Results on nine compounds are retold here after ChEMBL document CHEMBL4354781, “Drug-resistance in Mycobacterium tuberculosis: where we stand” (2019).

Holding throughout (assay type): functional
For test [1], the system named is Mycobacterium tuberculosis. Kind of test: Antitubercular activity against resistant Mycobacterium tuberculosis harboring rrs A1401G mutant after 3 to 6 weeks.
Test [2] deals with Mycobacterium tuberculosis. Kind of test: Antitubercular activity against resistant Mycobacterium tuberculosis harboring rrs A1401G mutant.
In test [3] the test system is Mycobacterium tuberculosis. Kind of test: Antitubercular activity against resistant Mycobacterium tuberculosis harboring embCAB Met306IIe/Val mutant.
Test [4] relates to Mycobacterium tuberculosis. The experiment in a line: Antitubercular activity against resistant Mycobacterium tuberculosis harboring embCAB Gly406Asp/Ala mutant.
Test [5] has as its system Mycobacterium tuberculosis. The experiment in a line: Antitubercular activity against resistant Mycobacterium tuberculosis Bangladesh isolate harboring katG Ser315Thr mutant.
In test [6] the test system is Mycobacterium tuberculosis. Kind of test: Antitubercular activity against resistant Mycobacterium tuberculosis TDR harboring inhA Promoter (c-15 t) mutant.
The subject of test [7] is Mycobacterium tuberculosis. The experiment in a line: Antitubercular activity against resistant Mycobacterium tuberculosis Bangladesh isolate harboring inhA Promoter (c-15 t).
For test [8], the system named is Mycobacterium tuberculosis. The experiment in a line: Antitubercular activity against resistant Mycobacterium tuberculosis TDR harboring inhA Promoter (c-15 t)/IIe21Thr mutant.
For test [9], the system named is Mycobacterium tuberculosis. The experiment in a line: Antitubercular activity against resistant Mycobacterium tuberculosis Bangladesh isolate harboring inhA Promoter (c-15 t)/IIe21Thr mutant.
The test system of test [10] is Mycobacterium tuberculosis. Kind of test: Antitubercular activity against resistant Mycobacterium tuberculosis TDR harboring katG Ser315Thr mutant.
The test system of test [11] is Mycobacterium tuberculosis. Kind of test: Antitubercular activity against resistant Mycobacterium tuberculosis TDR harboring inhA Promoter (c-15 t)/Ser94Ala mutant.
Test [12] concerns Mycobacterium tuberculosis. The experiment in a line: Antitubercular activity against resistant Mycobacterium tuberculosis Bangladesh isolate harboring inhA Promoter (c-15 t)/Ser94Ala mutant.
The test system of test [13] is Mycobacterium tuberculosis. Kind of test: Antitubercular activity against resistant Mycobacterium tuberculosis harboring rrs G37T mutant after 3 to 6 weeks.
The test system of test [14] is Mycobacterium tuberculosis. Kind of test: Antitubercular activity against resistant Mycobacterium tuberculosis harboring rrs C1402T mutant after 3 to 6 weeks.
Test [15] deals with Mycobacterium tuberculosis. Kind of test: Antitubercular activity against resistant Mycobacterium tuberculosis harboring rrs G1484T/C-12T mutant after 3 to 6 weeks.
Test [16] relates to Mycobacterium tuberculosis. Kind of test: Antitubercular activity against resistant Mycobacterium tuberculosis harboring gyrB T511N mutant incubated for 28 days by absolute concentration method.
For test [17], the system named is Mycobacterium tuberculosis. Kind of test: Antitubercular activity against resistant Mycobacterium tuberculosis harboring gyrB Ala90Val mutant incubated for 28 days by absolute concentration method.
Test [18] relates to Mycobacterium tuberculosis. The experiment in a line: Antitubercular activity against resistant Mycobacterium tuberculosis harboring gyrA Asp94Asn mutant incubated for 28 days by absolute concentration method.
Test [19] deals with Mycobacterium tuberculosis. The experiment in a line: Antitubercular activity against resistant Mycobacterium tuberculosis harboring gyrA Asp94His mutant incubated for 28 days by absolute concentration method.
Test [20] relates to Mycobacterium tuberculosis. Kind of test: Antitubercular activity against resistant Mycobacterium tuberculosis harboring gyrA Asp94Gly mutant incubated for 28 days by absolute concentration method.
Test [21] concerns Mycobacterium tuberculosis. Kind of test: Antitubercular activity against resistant Mycobacterium tuberculosis harboring gyrA Asp94Tyr mutant incubated for 28 days by absolute concentration method.
The subject of test [22] is Mycobacterium tuberculosis. Kind of test: Antitubercular activity against resistant Mycobacterium tuberculosis harboring rplC Cys154Arg mutant.
For test [23], the system named is Mycobacterium tuberculosis. The experiment in a line: Antitubercular activity against multidrug resistant Mycobacterium tuberculosis.
In test [24] the test system is Mycobacterium tuberculosis. Kind of test: Antitubercular activity against resistant Mycobacterium tuberculosis harboring pncA D8N mutant incubated for 3 weeks.
Test [25] deals with Mycobacterium tuberculosis. Kind of test: Antitubercular activity against resistant Mycobacterium tuberculosis harboring pncA Cys138S mutant incubated for 3 weeks.
In test [26] the test system is Mycobacterium tuberculosis. The experiment in a line: Antitubercular activity against resistant Mycobacterium tuberculosis 3 harboring rpoB Ser531Leu mutant after 4 weeks by absolute concentration-microtiter method.
The subject of test [27] is Mycobacterium tuberculosis. Kind of test: Antitubercular activity against resistant Mycobacterium tuberculosis 7 harboring rpoB His526Tyr mutant by absolute concentration-microtiter method.
Test [28] deals with Mycobacterium tuberculosis. The experiment in a line: Antitubercular activity against resistant Mycobacterium tuberculosis 21 harboring rpoB Ser531Leu mutant after 4 weeks by absolute concentration-microtiter method.
The test system of test [29] is Mycobacterium tuberculosis. Kind of test: Antitubercular activity against resistant Mycobacterium tuberculosis 2 harboring rpoB Ser531Leu mutant after 4 weeks by absolute concentration-microtiter method.
The subject of test [30] is Mycobacterium tuberculosis. Kind of test: Antitubercular activity against resistant Mycobacterium tuberculosis 4 harboring rpoB Ser531Leu mutant after 4 weeks by absolute concentration-microtiter method.
The subject of test [31] is Mycobacterium tuberculosis. Kind of test: Antitubercular activity against resistant Mycobacterium tuberculosis 73 harboring rpoB His526Tyr mutant by absolute concentration-microtiter method.
Test [32] deals with Mycobacterium tuberculosis. The experiment in a line: Antitubercular activity against resistant Mycobacterium tuberculosis 75 harboring rpoB Ser531Leu mutant after 4 weeks by absolute concentration-microtiter method.
Test [33] has as its system Mycobacterium tuberculosis. The experiment in a line: Antitubercular activity against resistant Mycobacterium tuberculosis 72 harboring rpoB His526Asp mutant by absolute concentration-microtiter method.
Test [34] concerns Mycobacterium tuberculosis. Kind of test: Antitubercular activity against resistant Mycobacterium tuberculosis 74 harboring rpoB His526Tyr mutant by absolute concentration-microtiter method.
For test [35], the system named is Mycobacterium tuberculosis. Kind of test: Antitubercular activity against resistant Mycobacterium tuberculosis 26 harboring rpoB Ser531Leu mutant after 4 weeks by absolute concentration-microtiter method.
Test [36] relates to Mycobacterium tuberculosis. The experiment in a line: Antitubercular activity against resistant Mycobacterium tuberculosis 6 harboring rpoB Ser531Leu mutant after 4 weeks by absolute concentration-microtiter method.
For test [37], the system named is Mycobacterium tuberculosis. Kind of test: Antitubercular activity against resistant Mycobacterium tuberculosis 76 harboring rpoB Ser531Leu mutant after 4 weeks by absolute concentration-microtiter method.
The test system of test [38] is Mycobacterium tuberculosis. The experiment in a line: Antitubercular activity against resistant Mycobacterium tuberculosis 5 harboring rpoB His526Tyr mutant by absolute concentration-microtiter method.
In test [39] the test system is Mycobacterium tuberculosis. Kind of test: Antitubercular activity against resistant Mycobacterium tuberculosis 1 harboring rpoB Ser531Leu mutant after 4 weeks by absolute concentration-microtiter method.
The test system of test [40] is Mycobacterium tuberculosis. Kind of test: Antitubercular activity against resistant Mycobacterium tuberculosis 23 harboring rpoB His526Asp mutant by absolute concentration-microtiter method.
Test [41] deals with Mycobacterium tuberculosis. The experiment in a line: Antitubercular activity against resistant Mycobacterium tuberculosis 8 harboring rpoB His526Pro mutant by absolute concentration-microtiter method.

In brackets after ≈: the same amount, converted by molar mass. Numbered stars: 1 amine (or outer) side, 2 acyl side, 3 side chain; on linkers, the order of the positions; unused ones are H or OH. Bridge positions count the residues as written; N and C are the ends. Square brackets hold non-standard residues; d marks the D form. Peptide text beside a SMILES is read from it. * marks the point of attachment. X1 = N=C1NCC[C@H]([C@H](N[*:1])C(=O)[*:2])N1; ΔAla(Z-3-ureido) = NC(=O)N/C=C(\N)C(=O)O; β3hOrn = NCCC[C@H](N)CC(=O)*; Dap = NC[C@H](N)C(=O)O Bounds are passed on as bounds.

The MIC is the least concentration at which growth counts as inhibited. High values mean a need for much substance, low ones inhibition by little substance. In turn, `N=C1NCC[C@H]([C@@H]2NC(=O)/C(=C/NC(N)=O)NC(=O)[C@H](CNC(=O)C[C@@H](N)CCCN)NC(=O)[C@H](CO)NC(=O)[C@@H](N)CNC2=O)N1` (H-[Dap]S[Dap](β3hOrn)[ΔAla(Z-3-ureido)][X1]; lactam 1-C) displayed a minimal inhibitory concentration (MIC) in [1] greater than 2.5 µg/mL.
With `NCC[C@H](O)C(=O)N[C@@H]1C[C@H](N)[C@@H](O[C@H]2O[C@H](CN)[C@@H](O)[C@H](O)[C@H]2O)[C@H](O)[C@H]1O[C@H]1O[C@H](CO)[C@@H](O)[C@H](N)[C@H]1O` [AMIKACIN], in test [2], the minimum inhibitory concentration (MIC) worked out at 4 µg/mL (≈ 6.83 µM).
Regarding `CC[C@@H](CO)NCCN[C@@H](CC)CO` [ETHAMBUTOL], the MIC in test [3] and in test [4] was 10 to 50 µg/mL each time.
Consider `NNC(=O)c1ccncc1` [ISONIAZID], for which the MIC was greater than 19.2 µg/mL in [5]; 0.16 to 0.8 µg/mL in [6]; 0.16 to 0.8 µg/mL (≈ 1.17 to 5.83 µM) in [7]; 3.2 to 12.8 µg/mL in [8]; 3.2 to 12.8 µg/mL in test [9]; greater than 19.2 µg/mL in test [10]. Besides, the minimum inhibitory concentration (MIC) in [11] and in [12] was 3.2 to 12.8 µg/mL each time.
As for `NC[C@H]1O[C@H](O[C@H]2[C@H](O)[C@@H](O[C@H]3O[C@H](CO)[C@@H](O)[C@H](N)[C@H]3O)[C@H](N)C[C@@H]2N)[C@H](O)[C@@H](O)[C@@H]1O` [KANAMYCIN], the MIC in test [13], in test [1], in test [14] and in [15] was greater than 2.5 µg/mL throughout.
Consider `C[C@H]1COc2c(N3CCN(C)CC3)c(F)cc3c(=O)c(C(=O)O)cn1c23.C[C@H]1COc2c(N3CCN(C)CC3)c(F)cc3c(=O)c(C(=O)O)cn1c23.O` [LEVOFLOXACIN], for which the MIC is greater than 1 µg/mL in [16]; greater than 1 µg/mL in test [17]; greater than 10 µg/mL in test [18]; greater than 10 µg/mL in test [19]; greater than 10 µg/mL in [20]; greater than 10 µg/mL in test [21].
Turning to `CC(=O)NC[C@H]1CN(c2ccc(N3CCOCC3)c(F)c2)C(=O)O1` [LINEZOLID], the MIC was greater than 1 µg/mL in test [22] and 0.125 to 0.5 µg/mL (≈ 0.371 to 1.48 µM) in test [23].
As to `NC(=O)c1cnccn1` [PYRAZINAMIDE], the MIC result in [24] and in [25] was “>=400 - 800 ug ml-1” throughout.
In the case of `CO[C@H]1/C=C/O[C@@]2(C)Oc3c(C)c(O)c4c(O)c(c(/C=N/N5CCN(C)CC5)c(O)c4c3C2=O)NC(=O)/C(C)=C\C=C\[C@H](C)[C@H](O)[C@@H](C)[C@@H](O)[C@@H](C)[C@H](OC(C)=O)[C@@H]1C` [RIFAMPIN], the MIC entry in test [26], in test [27], in test [28], in test [29], in [30] and in test [31] was “>=2 - 200 ug ml-1” in each case. Also, the MIC entry in test [32], in [33], in [34], in test [35], in test [36] and in [37] was “>=2 - 200 ug ml-1” each time. The MIC result in [38], in [39], in test [40] and in test [41] was “>=2 - 200 ug ml-1” throughout.
